# Columns and labels:
# Type in all cases: cell-based
# human neutrophils [1] = test: Chemiluminescence assay: priming of neutrophils for F-met-leu-phe response (respiratory burst); settings: for lucigenin dependent chemiluminescence, peak of response: 20 min pretreatment before f-met-leu-phe; for chemiluminescence (repeat experiment, Table 3): peptide + fMLP; for Chemiluminescence, neutrophil respiratory burst: 100 ug peptide, second, Table 4
# Procedure: Purified human neutrophils were pretreated with peptide for 20 minutes before the addition of f-met-leu-phe. The lucigenin dependent chemiluminescence response, which reflects superoxide production, was then measured. The results obtained are set out in Table 2 and are expressed as mV of lucigenin dependent chemiluminescence and represent the maximal cell activity attained.
# Results are expressed as mV of lucigenin dependent chemiluminescence and represent peak of response i.e. the maximal cell activity attained.
# neutrophils [2] = test: Neutrophil random migration out of wells in agarose
# Text: Migration of cells is an important property by which cells reach infection sites. Their accumulation at these sites is also dependent on the capacity of inflammatory mediators to inhibit their migration out of the sites.
# neutrophils [3] = test: Chemotactic properties, neutrophil migration under agarose; settings: towards agent well; 1 × 10^−7 M fMLP, peptide, or 10^3 U/ml TNFα; 2×10^5 neutrophils
# Procedure: 5 μl of neutrophils (2×10^5 cells) were added to the inner well, with chemotactic agent or control medium added to the outer wells. Migration at various time intervals was then measured.
# neutrophils [4] = test: Neutrophil degranulation: β-glucuronidase release (azurophilic granules); settings: for β-glucuronidase release, Exp. 1 / β-glucuronidase release, Exp. 2 / β-glucuronidase release, Exp. 3 / β-glucuronidase release, Exp. 4: in the presence of CytoB
# neutrophils [5] = test: Neutrophil degranulation: Vitamin B12 binding protein release (specific granules); settings: for Vitamin B12 Binding Protein, Exp. 1 / Vitamin B12 Binding Protein, Exp. 2 / Vitamin B12 Binding Protein, Exp. 3 / Vitamin B12 Binding Protein, Exp. 4: in the presence of CytoB
# human neutrophils [6] = test: Chemiluminescence assay: priming of neutrophils for F-met-leu-phe response (respiratory burst); settings: peptide alone
# monocytes = test: Priming of monocytes for a respiratory burst (chemiluminescence); settings: with fMLP; 10^6 monocytes/tube/ml; 419 100 μg/10^6 monocytes, 50 U TNF or no pre-treatment, 30 min pre-incubation 37° C.
# Procedure: Peptide 419 (SEQ ID NO. 18) was assayed for its ability to prime monocytes for a respiratory burst. This assay was conducted essentially as described above for neutrophils except that the cells were cultured for 24 hours prior to assay.
# [7] = peptide 100 μg/10^6 cells (or HBSS) + fMLP
# [8] = peptide 100 μg/10^6 cells, no fMLP
molecule,measurement,setting,value
LFKGQGCPSTHVLLTHTISRI (LFKGQGCPSTHVLLTHTISRI) [Peptide 304],neutrophil stimulating activity / stimulation of neutrophil respiratory burst (in words),human neutrophils [1],neutrophil stimulating activity
same,priming of neutrophils for the respiratory burst associated with f-met-leu-phe treatment (in words),human neutrophils [1],found to prime human neutrophils for the respiratory burst
same,"lucigenin dependent chemiluminescence, peak of response",human neutrophils [1]; peptide 1 μg/10^6 cells,0.18 mV
same,"lucigenin dependent chemiluminescence, peak of response",human neutrophils [1]; peptide 10 μg/10^6 cells,0.43 mV
same,"lucigenin dependent chemiluminescence, peak of response",human neutrophils [1]; peptide 100 μg/10^6 cells,2.56 mV
same,"lucigenin dependent chemiluminescence, peak of response",human neutrophils [1]; peptide 500 μg/10^6 cells,2.76 mV
same,"chemiluminescence (repeat experiment, Table 3)",human neutrophils [1]; 10 μg/10^6 cells,0.91 mV
same,"chemiluminescence (repeat experiment, Table 3)",human neutrophils [1]; 100 μg/10^6 cells,6.97 mV
same,effect on neutrophil random migration (in words),neutrophils [2],chemokinetic
same,Inhibition of Migration,neutrophils [2]; 10 μg/10^6 cells,−43%
same,Inhibition of Migration,neutrophils [2]; column headed 0 μg/10^6 cells,−16%
same,"Migration distance at 1.5 h, Agent",neutrophils [3],0.47 mm
same,"Migration distance at 2.5 h, Agent",neutrophils [3],0.72 mm
same,"release from azurophilic granules (β-glucuronidase), in words",neutrophils [4]; absence of fMLP,no effect
same,"β-glucuronidase release, Exp. 1",neutrophils [4]; [7],26.95%
same,"β-glucuronidase release, Exp. 2",neutrophils [4]; [7],36.43%
same,"β-glucuronidase release, Exp. 3",neutrophils [4]; [7],35.34%
same,"β-glucuronidase release, Exp. 4",neutrophils [4]; [7],36.65%
same,"β-glucuronidase release, Exp. 1",neutrophils [4]; [8],3.63%
same,"β-glucuronidase release, Exp. 2",neutrophils [4]; [8],3.14%
same,"β-glucuronidase release, Exp. 3",neutrophils [4]; [8],2.52%
same,"β-glucuronidase release, Exp. 4",neutrophils [4]; [8],9.82%
same,"release from azurophilic granules (β-glucuronidase), in words",neutrophils [4]; presence of fMLP,not azurophilic granules
same,"release from specific granules (Vitamin B12 binding protein), in words",neutrophils [5]; absence of fMLP,no effect
same,"Vitamin B12 Binding Protein, Exp. 1",neutrophils [5]; [7],43.76
same,"Vitamin B12 Binding Protein, Exp. 2",neutrophils [5]; [7],35.60
same,"Vitamin B12 Binding Protein, Exp. 3",neutrophils [5]; [7],59.15
same,"Vitamin B12 Binding Protein, Exp. 4",neutrophils [5]; [7],37.12
same,"Vitamin B12 Binding Protein, Exp. 1",neutrophils [5]; [8],11.40
same,"Vitamin B12 Binding Protein, Exp. 2",neutrophils [5]; [8],10.82
same,"Vitamin B12 Binding Protein, Exp. 3",neutrophils [5]; [8],13.06
same,"Vitamin B12 Binding Protein, Exp. 4",neutrophils [5]; [8],8.42
same,"release from specific granules (Vitamin B12 binding protein), in words",neutrophils [5]; presence of fMLP,enhanced release from specific granules
same,"chemiluminescence (repeat experiment, Table 3)",human neutrophils [6]; 10 μg/10^6 cells,0.36 mV
same,"chemiluminescence (repeat experiment, Table 3)",human neutrophils [6]; 100 μg/10^6 cells,0.64 mV
A V S Y Q T K V N L L (AVSYQTKVNLL) [Peptide 396],"Chemiluminescence, neutrophil respiratory burst",human neutrophils [1],0.70 mV
"CSCC[C@H](NC=O)C(=O)N[C@@H](CC(C)C)C(=O)N[C@@H](Cc1ccccc1)C(=O)O [fMLP, N-formyl-L-methionyl-L-leucyl-L-phenylalanine, reference compound]","Peak mV Chemiluminescence, Mean ± S.D.",monocytes,109.0 ± 7.071 mV
same,"Peak mV Chemiluminescence, experiment 2",monocytes,114.0 mV
same,"Migration distance at 1.5 h, Agent",neutrophils [3],1.46 mm
same,"Migration distance at 2.5 h, Agent",neutrophils [3],2.45 mm
T I S R I A V S Y Q T (TISRIAVSYQT) [Peptide 323],priming of neutrophils for the respiratory burst associated with f-met-leu-phe treatment (in words),human neutrophils [1],not found to be capable of priming neutrophils
same,"lucigenin dependent chemiluminescence, peak of response",human neutrophils [1]; peptide 1 μg/10^6 cells,0.23 mV
same,"lucigenin dependent chemiluminescence, peak of response",human neutrophils [1]; peptide 10 μg/10^6 cells,0.17 mV
same,"lucigenin dependent chemiluminescence, peak of response",human neutrophils [1]; peptide 100 μg/10^6 cells,0.47 mV
A E G Q L Q W L N R R A N A L L A N G (AEGQLQWLNRRANALLANG) [Peptide 307],"lucigenin dependent chemiluminescence, peak of response",human neutrophils [1]; peptide 1 μg/10^6 cells,0.35 mV
same,"lucigenin dependent chemiluminescence, peak of response",human neutrophils [1]; peptide 10 μg/10^6 cells,0.37 mV
same,"lucigenin dependent chemiluminescence, peak of response",human neutrophils [1]; peptide 100 μg/10^6 cells,0.42 mV
V A H V V A N P Q A E G Q L (VAHVVANPQAEGQL) [Peptide 306],"lucigenin dependent chemiluminescence, peak of response",human neutrophils [1]; peptide 1 μg/10^6 cells,0.27 mV
same,"lucigenin dependent chemiluminescence, peak of response",human neutrophils [1]; peptide 10 μg/10^6 cells,0.35 mV
same,"lucigenin dependent chemiluminescence, peak of response",human neutrophils [1]; peptide 100 μg/10^6 cells,0.23 mV
L S A I K S P C Q R E T P E G A (LSAIKSPCQRETPEGA) [Peptide 303],"lucigenin dependent chemiluminescence, peak of response",human neutrophils [1]; peptide 1 μg/10^6 cells,0.23 mV
same,"lucigenin dependent chemiluminescence, peak of response",human neutrophils [1]; peptide 10 μg/10^6 cells,0.17 mV
same,"lucigenin dependent chemiluminescence, peak of response",human neutrophils [1]; peptide 100 μg/10^6 cells,0.22 mV
S R I A V S Y Q T K V N L L (SRIAVSYQTKVNLL) [Peptide 394],"Chemiluminescence, neutrophil respiratory burst",human neutrophils [1],0.33 mV

# — patent US6375928B1, “Neutrophil stimulating peptides” (Peptech Limited, priority 1990, dated 2002)
